Test results published in publication PMC5326599 (Antiviral research, 2017).
Values joined by “and” are separate entries in the source; they are usually repeats but may differ in a detail not shown here. Identical values can stand only once. Like-named read-outs stand apart in the source and are kept apart here. Marks after values point to notes of the source that are not given here.

Assays:
[1] = tested on: A/WSN/33 (M2-N31S) (H1N1) virus; format: cell-based, influenza A virus; settings: read-out: EC50, A/WSN/33 (M2-N31S) (H1N1)
[2] = tested on: A/Solomon Islands/3/2006 (H1N1) virus; test: microbe, parasite or virus in culture; format: cell-based; settings: read-out: EC50, A/Solomon Islands/3/2006 (H1N1)
[3] = tested on: A/Udorn/72 (H3N2) virus (M2-WT); test: microbe, parasite or virus in culture; format: cell-based, influenza A virus
[4] = tested on: influenza A/WSN/33 (M2-N31S + V27A) (H1N1) virus; parameters: species or system BALB/c mice; settings: mouse, in vivo
[5] = target: M2-S31N channel (Influenza A virus, UniProt P0DOF5, S31N); format: biochemical
[6] = tested on: A/WSN/33 (M2-N31S + V27A) (H1N1) virus; format: cell-based, influenza A virus
[7] = target: A/Udorn/72 (M2-V27A) proton channel (Influenza A virus, UniProt P0DOF5, V27A); format: biochemical

| Structure (SMILES) | EC50 [1] | EC50 ([2]; Influenza A virus, H1N1, MDCK) | EC50 ([3]; Influenza A virus, H3N2, read-out: antiviral EC50 at passage 1) | MDD ± SD (mean day of death) [4] | Mean Lung Parameters ± SD (Day 6): Virus Titer [4] | Mean Lung Parameters ± SD (Day 6): Weight [4] | Survivors/Total [4] | protection / effectiveness (in words) [4] | channel inhibition at 100 μM, M2-S31N [5] | EC50 ([6]; read-out: Antiviral Efficacy EC50, A/WSN/33 (M2-N31S + V27A) (H1N1) M2-V27A) | EC50 [2] | EC50 ([3]; read-out: antiviral EC50 at passage 1) | EC50 ([3]; read-out: antiviral EC50 at passage 2) | channel conductance current at the second activation event, % of the maximum current [7] | Mean Lung Parameters ± SD (Day 6): Hemorrhage Score [4] | protection from death [4] | inhibition of plaque formation [6] |
| --- | --- | --- | --- | --- | --- | --- | --- | --- | --- | --- | --- | --- | --- | --- | --- | --- | --- |
| NC12CC3CC(CC(C3)C1)C2 [Amantadine (1), amantadine] | […] | […] | […] | […] | […] | […] | […] | minimum effectiveness |  |  |  |  |  |  |  |  |  |
| NC1CCC2(CC1)C1CC3CC(C1)CC2C3 (centres unmarked) [Compound 3, spiroadamantane amine] | […] |  |  | […] | […] | […] | […] | highly protective | […] | […] | […] | […] | […] | […] |  |  |  |
| CCOC(=O)C1=C[C@@H](OC(CC)CC)[C@H](NC(C)=O)[C@@H](N)C1 [Oseltamivir (4), Oseltamivir] |  |  |  |  | 2.5 ± 0.2 Log10 CCID50/g | 178 ± 28 mg | 10/10^*** |  |  |  |  |  |  |  | 0.0 ± 0.0 | 100% |  |
| CCC(CC)O[C@@H]1C=C(C(=O)O)C[C@H](N)[C@H]1NC(C)=O [Oseltamivir carboxylate (4), Oseltamivir carboxylate, reference compound] |  |  |  |  |  |  |  |  |  |  |  |  |  |  |  |  | complete inhibition |
